Entries after “also recorded” stand apart in the source; their conditions may differ.
How the values were obtained:
[1] = system: C6 glioblastoma cells; type: in vivo, rat; design: dose or concentration left out as unconfirmed; conditions: C6 cells pre-treated 24 hours in serum-free medium
[2] = system: C6 cells; assay: Tumorigenesis of C6 cells in nude mice; type: in vivo; conditions: for Expected Delay: calculated from % cells recovered; for Palpable Tumors: s.c. in nude mice
Method: C6 cells pre-incubated with various concentrations (10^−12, 10^−10, 10^−8, and 10^−5 M) of the peptide YLRPGPVTA were injected simultaneously into nude mice and the time of appearance of subcutaneous tumors was determined. In parallel experiments, the percentage of cells killed in the diffusion chamber assay was determined. From the percentage of cells killed, the expected delay in the appearance of tumors in mice was calculated as described previously (Resnicoff, et al., Cancer Res. 55:3739 (1995)). […] The time of appearance of tumors is slightly more delayed than expected from the percentage of cells killed in 24 hours in the diffusion chamber assay, a phenomenon previously observed also with antisense oligodeoxynucleotides to the IGF-IR RNA (Resnicoff, et al., Cancer Res. 55:3739 (1995)).
A similar inhibition of tumorigenesis was observed using the D-amino acid peptide LRLTATGDLL. In this case, the peptide (all D-aa, sequence from Kawakami, et al. (1994)) was injected s.c. into nude mice (0.1 ml, at the indicated concentrations), simultaneously with C6 cells (10^5 cells in 0.1 ml) and next to them. The animals were followed for tumor development. The results were as follows: For C6 cells without peptide injection, the tumors appeared after 4 days; for a peptide injection at 10^−10 to 10^−12 M, tumors appeared after 11 days.
C6 cells were incubated with the synthetic peptide at the indicated final concentrations for 24 hours in serum-free medium before injection into the subcutaneous tissue of seven week-old male Dalb/c nude mice. Percentage recovery was determined using the diffusion chamber assay as described herein. Expected Delay is the number of days after injection before the tumors should become palpable, based on survival in vivo estimated by percentage of cells recovered. […] Three nude mice were used in each experimental condition.

[3] = system: CaOV3 cells (human ovarian carcinoma cells); assay: Diffusion chamber assay, CaOV3 cells in mice, peptide injected s.c. next to chamber; type: in vivo, mouse; conditions: Balb/c mice, 0.2 ml of 0.05 mM peptide s.c. next to chamber, 24 hours
Method: (§1) The test for apoptosis in vivo was based on the use of the diffusion chamber described in detail by Resnicoff, M., et al., Cancer Res. 55: 2463-2469 (1995). According to this method, the cells are placed in a diffusion chamber that allows the passage of nutrients, antigens, antibodies, etc., but not of intact cells. The sterilized chamber is loaded with cells and then inserted into the subcutaneous tissue of rats or mice; after 24 hours, (or at other times, depending on the experiment) the chamber is removed and the number of cells in the chamber is determined with a hemocytometer, and expressed as a percentage of the original inoculum. The cells are also stained with trypan blue for viability; in the experience of the inventors, surviving cells are >95% viable.
(§2) For in vivo effects, 5×10^5 cells (C6 and CaOV-3 were both used for these studies) were placed in diffusion chambers and implanted into the s.c. tissue of the animals. Once the skin was sutured, the peptides were injected s.c. next to the chambers at the indicated concentrations in a final volume of 0.2 ml. Twenty-four hours later, the chambers were removed from the animals and the cells were quantitatively recovered.
Human ovarian carcinoma cells CaOV3 (Resnicoff, et al. (1993)) were loaded into a diffusion chamber, and the chamber was inserted into the subcutaneous tissue of mice. The animals were then injected, also subcutaneously next to the chamber, with 0.2 ml of a 0.05 mM solution of four different peptides, and the number of cells was determined 24 hours later. […] The control peptide had no effect, and the number of cells more than doubled. CaOV3 cells also undergo apoptosis, as determined by FACS analysis.
CaOV3 cells (human ovarian carcinoma cells, 5×10^5 cells) were placed without any previous treatment into diffusion chambers that were then implanted into the subcutaneous tissue of Balb/c mice. Animals were then injected subcutaneously next to the chambers either with 0.2 ml of a 0.05 mM solution of one of the three test peptides or with 0.2 ml of a 0.05 mM solution of the control peptide.

[4] = system: C6 cells; assay: Protection from subsequent challenge with wild type C6 cells; type: in vivo, rat
Method: Synthetic peptide sequences listed above were tested at 5×10^−M on C6 cells. Tests for apoptosis and for protection from subsequent challenge with C6 cells are described herein. Point mutations are shown in bold characters.

[5] = system: C6 cells; assay: In vivo apoptosis assay: peptide-pretreated C6 cells in a diffusion chamber implanted s.c. in rats; design: species or system rat; conditions: for Percent Recovery: 24 hours in diffusion chamber; for % Recovery (24 hs): peptide at 5×10^−M, 24 hs in diffusion chamber, % of original inoculum
Method: as §1, §2
(from gp100), involved in regression of human melanoma (Kawakami et al. 1994); 2) […], recognized by melanoma-specific human CTL lines (Cox et al, 1994); and 3) […], derived from connexin 37, that induces CTL responses against murine lung carcinoma (Mandelboim, et al., 1994). For each of these peptides, a control peptide having the same amino acid composition, but in scrambled order (controls), was also tested. C6 cells were preincubated with the peptides at a concentration of 10^−5M and transferred to the diffusion chamber (see Methods and Materials). Cell number was determined after 24 hours in the diffusion chamber transplanted into the subcutaneous tissue of rats.
Two of the three peptides were selected for further studies of the effects of mutations on the ability to induce apoptosis. Several point mutations were introduced into the peptide […]. […] Mutations at tyrosine in position 1, or the two prolines in positions 4 and 6, effectively inactivated peptide no. 2. An exception to this observation was seen when the prolines were replaced by an N-methyl amino acid. Mutations at E3 or T8 had little effect, but when both residues were mutated, recovery increased to 77%.
In order to determine the minimum concentration of these peptides that still would induce apoptosis in vivo, C6 cells were preincubated with different concentrations of the […] and D-amino acid […] peptides and recovery of viable cells was determined after 24 hours in the diffusion chamber.

[6] = system: C6 cells; assay: FACS analysis of apoptotic cells in the diffusion chamber; design: species or system rat; conditions: C6 cells incubated in vivo for 90 minutes in diffusion chamber
Method: In order to determine that the loss of cells upon treatment with active peptides was due to the induction of apoptosis, the presence of apoptotic cells within the diffusion chamber was determined at several time intervals by FACS analysis (Sell, et al. (1995)). FIG. 1 represents a typical experiment using C6 cells. […] In both cases, the cells had been incubated in vivo for 90 minutes in a diffusion chamber as described herein. […] Similar results were obtained at several time intervals thereafter.

[7] = system: C6/p35 cells; assay: Diffusion chamber apoptosis test on C6 cells expressing baculovirus p35; type: in vivo, rat; conditions: untreated versus incubated with peptide
Method: In addition, one of the common pathways of apoptotic injury is through the ICE proteins ([…] (1996)). The activation of ICE and ICE-like proteins is inhibited by the p35 protein of baculovirus (Clem and Miller (1994)), which can also be functional in mammalian cells (Rabizadeh, et al. (1993). To determine whether the synthetic peptides caused apoptosis through the ICE pathway, a plasmid expressing the p35 protein was stably introduced into C6 cells. C6 and C6/p35 cells were then tested for apoptosis in the diffusion chambers, using the synthetic peptide […]. 2 is a composite picture showing the expression of p35 in the various cell lines, and, below each lane, the percentage of cells recovered from the diffusion chamber.

GILGFVPTL [Peptide M158-66, synthetic peptide corresponding to one derived from influenza virus]
Recovery (%) [1]: 23.4%

LRLTATGDLL (D-amino acids) [LRLTATGDLL (D-amino acid)]
time of appearance of tumors ([2]; peptide 0.1 ml s.c. at 10^−10 to 10^−12 M, simultaneously with and next to 10^5 C6 cells, nude mice): 11 days | Percent Recovery [3]: 6.6% | Protection from wild type cell challenge [4]: yes | ability to induce apoptosis (in words) ([5]; C6 cells, diffusion chamber, preincubation at 10^−5 M): as effective as the L-amino acid sequences | Percent Recovery ([5]; C6 cells, peptide 10^−5 M): 0.5% | Percent Recovery ([5]; C6 cells, peptide 10^−8 M): 3.0% | Percent Recovery ([5]; C6 cells, peptide 10^−12 M): 6.6% | Percent Recovery ([5]; C6 cells, peptide 10^−13 M, listed as LRLTATGDLL (D-aa)): 18.0% | % Recovery (24 hs) ([5]; C6 cells): 4.9%

YLEPGPVTA [MHC Class I peptide recognized by melanoma-specific human CTL lines]
apoptotic cells by FACS analysis [6]: Apoptotic cells are detectable | Percent Recovery [3]: 0.2% | Protection from wild type cell challenge [4]: yes | % Recovery (24 hs) ([5]; C6 cells): 3.0%

SMAPGNYSV [control peptide, reference compound]
apoptotic cells by FACS analysis [6]: not

YLRPGPVTA [point mutant of …]
growth of clones expressing the p35 protein in the diffusion chamber [7]: grew in the diffusion chamber equally well whether untreated or incubated with the synthetic peptide; also recorded: grew in the diffusion chamber equally well, whether untreated or incubated with the synthetic peptide | Expected Delay ([2]; 10^−5 M peptide): 14 days | Expected Delay ([2]; 10^−8 M peptide): 11 days | Expected Delay ([2]; 10^−10 M peptide): 10 days | Expected Delay ([2]; 10^−12 M peptide, days before tumors should become palpable): 8 days | Palpable Tumors ([2]; C6 cells pre-incubated with 10^−5 M peptide): 21 days | Palpable Tumors ([2]; C6 cells pre-incubated with 10^−8 M peptide): 15 days | Palpable Tumors ([2]; C6 cells pre-incubated with 10^−10 M peptide): 14 days | Palpable Tumors ([2]; C6 cells pre-incubated with 10^−12 M peptide, days after injection): 11 days | inhibition of tumorigenesis (in words) ([2]; C6 cells pre-treated with peptide at 10^−12 to 10^−5 M, nude mice): concentration-dependent inhibition of tumorigenesis | Percent Recovery [3]: 3.0% | Protection from wild type cell challenge [4]: yes | % Recovery ([5]; C6 cells incubated with 10^−5 M peptide 24 hours in serum-free medium, diffusion chamber): 0.3% | % Recovery ([5]; C6 cells incubated with 10^−8 M peptide 24 hours in serum-free medium, diffusion chamber): 2.1% | % Recovery ([5]; C6 cells incubated with 10^−10 M peptide 24 hours in serum-free medium, diffusion chamber): 4.5% | % Recovery ([5]; C6 cells incubated with 10^−12 M peptide 24 hours in serum-free medium, diffusion chamber): 18% | Percent Recovery ([5]; C6 cells, peptide 10^−5 M): 0.3% | Percent Recovery ([5]; C6 cells, peptide 10^−8 M): 2.1% | Percent Recovery ([5]; C6 cells, peptide 10^−10 M): 4.5% | Percent Recovery ([5]; C6 cells, peptide 10^−12 M): 18% | % Recovery (24 hs) ([5]; C6 cells): 3.5% | apoptosis in C6 cells and C6 cells stably transfected with the empty vector ([5]; diffusion chamber, treated with peptide): underwent apoptosis
